Laboratory results as given in patent publication US7897759B2, “Metabolically stable puromycin analogs” (MUSC Foundation for Research Development, priority 2007, dated 2011).

Assays:
[1] = test system: JC murine mammary adenocarcinoma cells growing in Balb/c mice; assay: Antitumor effects in murine mammary tumor model; assay type: in vivo; conditions: 50 mg/kg intraperitoneal on days 7 and 12, FIG. 3
Description: Model: JC murine mammary adenocarcinoma cells growing in Balb/c mice. Treatment is started when tumor are small, typically ˜20 mm3.
(§1) Treatment: Drug was administered by intraperitoneal injection on days 7, and 12 at 50 mg/kg dissolved in 50% DMSO:50% PBS.

[2] = test system: breast cancer (MCF-7) cells; assay: SRB cytotoxicity assay in MCF-7 cells; assay type: cell-based; conditions: 72 h, FIG. 1
Description: Dump media and wash wells with PBS. Add approx 100 μL 10% TCA to wells using squirt bottle. Incubate at 4° C. for 30 minutes to 1 hour. Dump TCA and wash plate 5 times with water (use beaker for washes). Add 100 ul SRB dye to wells. Incubate at room temperature for 30 minutes. Dump dye and wash plate 4 times with 1% acetic acid (use beaker for washes). Add 200 μL Tris Base to wells. Incubate at room temperature with agitation for at least 1 hour. Use Softmax pro plate reader with SRB560.
MCF-7 cells were plated at a density of 50,000 cells/well (99 μL/well) in a 96-well microtiter plate and allowed to adhere at 37° C. for 4 h. The drug (dissolved in 1 μL of DMSO/medium solution) was added and cells were incubated at 37° C. for 72 h. 100 μL of a 10% solution of trichloroacetic acid was then added and the cells were incubated for 1 h at 4° C. The supernatant was removed and the plate was washed 5 times with water. 100 μL of SRB dye (Promega) was added and the plate was incubated at rt for 30 min. The dye was removed and the plate was washed 4 times with 1% acetic acid solution. 200 μL of Tris Base was added, and the plate was incubated at rt with agitation for 1 h. Absorbance was read at 560 nm.

[3] = test system: leukemia (HL-60) cells; assay: MTS cytotoxicity assay in HL-60 cells; assay type: cell-based; conditions: 72 h, FIG. 2
Description: HL-60 cells were plated at a density of 4,000 cells/well (99 μL/well) in a 96-well microtiter plate. The drug (dissolved in 1 μL of DMSO/medium solution) was added and cells were incubated at 37° C. for 72 h. 20 μL of a solution of MTS/PMS (Promega, 5% PMS/MTS) was then added, the cells were incubated for 1 h, after which absorbance was read at 490 nm.

[4] = Body weight / toxicity in murine mammary tumor model; assay type: in vivo
Description: Model: JC murine mammary adenocarcinoma cells growing in Balb/c mice.
as §1

[5] = test system: Bacillus subtilis ATCC 6633; conditions: B. subtilis; Gilbert et al., Tetrahedron 2005; cited from earlier work
[6] = test system: Bacillus cereus ATCC 10987; conditions: B. cereus; Gilbert et al., Tetrahedron 2005; cited from earlier work

Structure (SMILES) | effect on tumor growth [1] | cytotoxic activity (killing curve) versus puromycin [2] | cytotoxic activity (killing curve) versus puromycin [3] | toxicity ([4]; 50 mg/kg intraperitoneal on days 7 and 12) | effect on body weight ([4]; 50 mg/kg intraperitoneal, during the treatment period (or after), FIG. 4) | antimicrobial activity (MIC) [5] [mg/L] | antimicrobial activity (MIC) [6] [mg/L]
CN(C)c1ncnc2c1ncn2[C@@H]1O[C@H](CO)[C@H](CC(=O)[C@@H](N)Cc2ccccc2)C1O (stereo partly drawn) [GG-48, 9-{3-[1-(3-amino-2-oxo-4-phenyl)butyl]-3-deoxy-D-ribofuranosyl}-6-dimethylaminopurine] | suppressed tumor growth | killing curves overlapping those of puromycin | killing curves overlapping those of puromycin | no obvious toxicity | no loss of body weight | – | –
COc1ccc(C[C@H](N)C(=O)N[C@H]2[C@@H](O)[C@H](n3cnc4c(N(C)C)ncnc43)O[C@@H]2CO)cc1 [puromycin] | – | – | – | – | – | 3.13 | 3.13
